Source: patent US20060100431A1, “Biologically active compounds” (Amura Therapeutics Limited, priority 2002, published 2006)

What was measured:
Assay type in all cases: biochemical
Wild-type cruzipain = Wild-type cruzipain (Trypanosoma cruzi, UniProt P25779); assay: Trypanosoma cruzi cruzipain peptidase activity assay (Ki); conditions: read-out: Ki, inhibitors of cruzain and cruzipains
Method in brief: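 Native cruzipain from T. cruzi Dm28 epimastigotes, 2.5 nM, in 100 mM sodium phosphate pH 6.75 with 1 mM EDTA and 10 mM L-cysteine, 25 °C, DMSO <1%. Rates taken from continuous fluorogenic substrate read; Ki by regression assuming reversible pure-competitive inhibition.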

CPB2.8ΔCTE = biological target: T1, CPB2.8ΔCTE (Leishmania mexicana, UniProt P36400); assay: Leishmania mexicana cysteine protease B (CPB) peptidase activity assay (Ki); conditions: Ki, inhibitors of Leismania mexicana CPB protease
T1 construct: Wild-type recombinant CPB without the C-terminal extention (i.e. CPB2.8ΔCTE); Dr. Jeremy Mottram (Wellcome Centre for Molecular Parasitology, University of Glasgow)
T1 sequence (P36400 126-343, stated change not applied): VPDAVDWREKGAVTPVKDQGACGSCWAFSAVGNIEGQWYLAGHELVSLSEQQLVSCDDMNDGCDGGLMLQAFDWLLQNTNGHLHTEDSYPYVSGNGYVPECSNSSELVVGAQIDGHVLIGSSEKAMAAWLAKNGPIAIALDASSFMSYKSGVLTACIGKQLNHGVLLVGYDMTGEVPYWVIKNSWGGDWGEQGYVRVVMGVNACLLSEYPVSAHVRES
Method in brief: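 Recombinant CPB2.8ΔCTE (0.25 nM) was assayed in 100 mM sodium acetate pH 5.5 with 1 mM EDTA, 200 mM NaCl and 10 mM DTT at 25 °C, DMSO <1%, enzyme added to start. Rates were taken from continuous fluorescence slopes; apparent Ki was fitted assuming reversible, pure-competitive inhibition.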

human cathepsin B = biological target: T2, human cathepsin B (Homo sapiens, UniProt P07858); assay: Cathepsin B peptidase activity assay (Ki); conditions: read-out: Ki, inhibitors of cathepsin B
T2 construct: purchased CN Biosciences
Method in brief: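 Buffer: 10 mM bis-tris-propane pH 6.5, 1 mM EDTA, 5 mM 2-mercaptoethanol, 1 mM CaCl2; DMSO <1%. Ki assumed reversible, pure-competitive, from Ki^app=Ki(1+[So]/KM^app) by non-linear regression.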

Bovine cathepsin S = biological target: T3, Bovine cathepsin S (Bos taurus, UniProt P25326); assay: Cathepsin S peptidase activity assay, bovine enzyme (Ki); conditions: species of cathepsin S not given; read-out: Ki, inhibitors of cathepsin S
T3 construct: purchased CN Biosciences
T3 sequence (P25326 115-331): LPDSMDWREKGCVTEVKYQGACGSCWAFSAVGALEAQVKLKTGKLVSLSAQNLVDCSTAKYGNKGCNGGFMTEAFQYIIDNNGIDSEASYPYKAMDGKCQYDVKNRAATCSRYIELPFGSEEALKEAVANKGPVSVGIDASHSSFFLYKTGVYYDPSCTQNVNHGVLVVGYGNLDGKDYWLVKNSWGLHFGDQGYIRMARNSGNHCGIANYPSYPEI
Method in brief: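 Bovine cathepsin S activity followed by fluorescence increase from substrate conversion to product over time, enzyme added to start the reaction, at 25±1° C. Buffer 10 mM bis-tris-propane pH 6.5 with 1 mM EDTA, 5 mM 2-mercaptoethanol, 1 mM CaCl2; DMSO kept below 1% (vol./vol.).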

Measured: Ki

Sequence of Wild-type cruzipain (P25779 whole entry): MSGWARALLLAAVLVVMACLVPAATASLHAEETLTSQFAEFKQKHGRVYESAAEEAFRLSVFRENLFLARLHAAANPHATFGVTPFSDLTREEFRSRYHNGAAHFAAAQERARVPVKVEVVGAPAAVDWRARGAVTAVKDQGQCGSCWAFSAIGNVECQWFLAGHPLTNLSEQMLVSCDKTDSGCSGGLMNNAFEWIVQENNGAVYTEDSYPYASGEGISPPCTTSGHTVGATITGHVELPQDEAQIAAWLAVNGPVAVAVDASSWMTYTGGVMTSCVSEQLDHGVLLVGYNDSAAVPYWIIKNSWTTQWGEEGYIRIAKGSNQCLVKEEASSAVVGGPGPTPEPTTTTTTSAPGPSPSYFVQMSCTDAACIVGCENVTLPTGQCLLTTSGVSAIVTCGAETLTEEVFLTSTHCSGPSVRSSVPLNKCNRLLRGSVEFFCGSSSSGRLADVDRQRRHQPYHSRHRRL

CC(C)C[C@H](NC(=O)c1ccc(Oc2ccccc2)cc1)C(=O)N1CC[C@@H]2[C@H]1C(=O)CN2C(=O)c1ccccc1 [Example 39, (3aR,6aS)-N-[(1S)-1-(4-Benzoyl-6-oxo-hexahydro-pyrrolo[3,2-b]pyrrole-1-carbonyl)-3-methyl-butyl]-4-phenoxy-benzamide]
< 5 µM: all assays above

Cc1cccc(C[C@H](NC(=O)C(c2ccccc2)c2ccccc2)C(=O)N2CC[C@@H]3[C@H]2C(=O)CN3C(=O)c2csc3ccccc23)c1 [Example 314]
< 5 µM: all assays above

O=C(N[C@@H](Cc1cccc(F)c1)C(=O)N1CC[C@@H]2[C@H]1C(=O)CN2C(=O)c1csc2ccccc12)C(c1ccccc1)c1ccccc1 [Example 315, (3aR,6aS)-N-[(1S)-2-[4-(Benzo[b]thiophene-3-carbonyl)-6-oxo-hexahydro-pyrrolo[3,2-b]pyrrole-1-yl]-1-(3-fluoro-benzyl)-2-oxo-ethyl]-2,2-diphenyl-acetamide]
< 5 µM: all assays above

O=C(N[C@@H](Cc1cc(F)cc(F)c1)C(=O)N1CC[C@@H]2[C@H]1C(=O)CN2C(=O)c1csc2ccccc12)C(c1ccccc1)c1ccccc1 [Example 316, (3aR,6aS)-N-[(1S)-2-[4-(Benzo[b]thiophene-3-carbonyl)-6-oxo-hexahydro-pyrrolo[3,2-b]pyrrole-1-yl]-1-(3,5-difluoro-benzyl)-2-oxo-ethyl]-2,2-diphenyl-acetamide]
< 5 µM: all assays above

O=C(N[C@@H](Cc1ccc(O)cc1)C(=O)N1CC[C@@H]2[C@H]1C(=O)CN2C(=O)c1csc2ccccc12)c1cccc(Br)c1 [Example 323, (3aR,6aS)-N-[(1S)-2-[4-(Benzo[b]thiophene-3-carbonyl)-6-oxo-hexahydro-pyrrolo[3,2-b]pyrrole-1-yl]-1-(4-hydroxy-benzyl)-2-oxo-ethyl]-3-bromo-benzamide]
< 5 µM: Wild-type cruzipain | human cathepsin B | Bovine cathepsin S

O=C(N[C@@H](Cc1ccc(O)cc1)C(=O)N1CC[C@@H]2[C@H]1C(=O)CN2C(=O)c1csc2ccccc12)C(c1ccccc1)c1ccccc1 [Example 329, (3aR,6aS)-N-[(1S)-2-[4-(Benzo[b]thiophene-3-carbonyl)-6-oxo-hexahydro-pyrrolo[3,2-b]pyrrole-1-yl]-1-(4-hydroxy-benzyl)-2-oxo-ethyl]-2,2-diphenyl-acetamide]
< 5 µM: all assays above

O=C(N[C@@H](Cc1ccc(O)cc1)C(=O)N1CC[C@@H]2[C@H]1C(=O)CN2C(=O)c1ccccc1)C(c1ccccc1)c1ccccc1 [Example 330, (3aR,6aS)-N-[(1S)-2-(4-Benzoyl-6-oxo-hexahydro-pyrrolo[3,2-b]pyrrol-1-yl)-1-(4-hydroxy-benzyl)-2-oxo-ethyl]-2,2-diphenyl-acetamide]
< 5 µM: all assays above
